Reference: patent US8318767B2, “Substituted imidazoles as bombesin receptor subtype-3 modulators” (Merck Sharp & Dohme Corp, priority 2006, dated 2012)

Target: T1, human BRS-3 (Homo sapiens, UniProt P32247)
T1 construct: expressed in transfected cells
T1 sequence (P32247 1-399): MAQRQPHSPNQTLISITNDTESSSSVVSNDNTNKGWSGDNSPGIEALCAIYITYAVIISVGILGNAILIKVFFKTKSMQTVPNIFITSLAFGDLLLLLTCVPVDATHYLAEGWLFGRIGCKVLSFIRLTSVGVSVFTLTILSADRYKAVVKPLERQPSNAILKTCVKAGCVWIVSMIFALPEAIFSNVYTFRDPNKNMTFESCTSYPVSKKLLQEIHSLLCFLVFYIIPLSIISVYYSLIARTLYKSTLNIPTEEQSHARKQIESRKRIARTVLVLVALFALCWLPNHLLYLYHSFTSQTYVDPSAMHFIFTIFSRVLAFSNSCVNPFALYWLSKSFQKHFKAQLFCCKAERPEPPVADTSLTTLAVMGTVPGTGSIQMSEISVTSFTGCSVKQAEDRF
Test: Bombesin Receptor Subtype 3 (BRS3) radioligand binding assay
Conditions: selected compounds
Experimental: Human embryonic kidney (HEK 293) cells expressing human BRS-3 were cultured to confluence and harvested by aspirating the culture medium and rinsing twice with 1×PBS without Mg^++ and Ca^++. Cellstriper Solution (Cellgrow #25-056-C1, 3 mL) was added to each T-175 flask until all cells dissociated and then an additional 15 mL 1×PBS without Mg^++ and Ca^++ were added to each flask. Dissociated cells were collected by centrifuging at 1000 rpm for 10 minutes. Cell pellets were resuspended and homogenized at 4° C. using a Polytron homogenizer (setting 40, 20 stokes) in approximately 10 mL membrane preparation buffer (10 mM Tris pH 7.4, 0.01 mM Pefabloc, 10 μM phosphoramidon and 40 μg/mL Bacitracin) per T175 flask. After centrifugation at 2200 rpm (1000×g) for 10 minutes at 4° C., the supernatant was transferred to a clean centrifuge tube and spun at 18,000 rpm (38,742×g) for 15 minutes. at 4° C. Membranes were resuspended in the above membrane preparation buffer (1 mL/T-175 flask), homogenized, aliquoted, quickly frozen in liquid nitrogen and stored at −80° C.
For the [^125I]-[D-Tyr^6,β-Ala^11,Phe^13,Nle^14]-Bombesin(6-14), “[^125I]-dY-peptide”, radioligand assay the specific binding of [^125I]-dY-peptide to human BRS3 was measured by filtration assay in 96-well plate format. The receptor membrane (2 μg/well) in binding buffer (50 mM Tris pH 7.4, 5 mM MgCl2, 0.1% BSA and protease inhibitor cocktail) was mixed with compound in DMSO (1% final concentration) and 30 pM [^125I]-dY-peptide. After incubation for 1-2 hours at room temperature, membrane-bound [^125I]-dY-peptide was separated from free [^125I]-dY-peptide by filtering through GF/C filters presoaked in 1% PEI solution. The filters were washed five times with ice-cold washing buffer (1×PBS without Mg^++ and Ca^++). The radioactivity was determined by adding 30 μl of microscintillant/well after each plate was dried at room temperature overnight or placed at 50° C. for 1 hr.
The radioligand, [^3H]-1-{4-[(4,5-difluoro-2-hydroxycarbonylphenyl)phenyl]}-2-(4-cyclohexylmethyl-1H-imidazol-2-yl)ethane, was used for binding to receptor membranes generated with BRS3 from rat and mouse and was also utilized for the human receptor. Cell membranes (5 to 20 μg/well) were added to binding buffer (25 mM Tris pH 7.4, 10 mM MgCl2, 2 mM EDTA and protease I cocktail) containing compound in DMSO (1% final concentration) and 660 pM [^3H]-biphenyl. After incubation for 1-2 hours at room temperature, membrane bound [^3H]-biphenyl was separated from free radiologand by filtering through GF/C filters presoaked in 1% PEI solution. The filters were washed five times with ice-cold washing buffer (50 mM Tris pH 7.4, 10 mM MgCl2, 2.5 mM EDTA and 0.02% Triton X-100). The radioactivity was determined by adding 30 μl of microscintillant/well after each plate was dried at room temperature overnight or placed at 50° C. for 1 hr.
A Packard Top Count was used to read the filter plates. The data in % inhibition of binding was plotted vs. the log molar concentration of receptor ligand (compound). The IC50 was reported as the inflection point of the resulting sigmoidal curve.
The binding assays for the rat and mouse Bombesin Receptor Subtype 3 (BRS3) were performed in a similar fashion.
An NFATCHO cell line stably expressing human BRS3 cDNA was generated using standard cell biology techniques and used to prepare receptor membranes for the human “[^125I]-dY-peptide binding assay. The cell line was cultured in T175 flasks in Iscove's Modified Dulbecco's Medium with L-glutamine and 25 mM HEPES buffer (Gibco #12440-046) supplemented with 10% FBS (cat#SH30070.03, Hyclone, Logan, Utah), 1×HT Supplement (0.1 mM Sodium Hypoxanthine and 16 μM Thymidine Gibco #11067-030), 2 mM L-glutamine (Gibco #25030-081), 100 units/mL Penicillin-G and 100 μg/mL Streptomycin (Gibco #15140-122) and 1 mg/mL Geneticin (Gibco #10131-027).

| Structure (SMILES) | IC50 [nM] |
| --- | --- |
| CCC(C)(C)Cc1c[nH]c(C(Cc2ccc(-c3ccc(F)cn3)cc2)NC)n1 (single isomer, unassigned) [Example 6, 1-[4-(2,2-dimethylbutyl)-1H-imidazol-2-yl]-2-[4-(5-fluoropyridin-2-yl)phenyl]-N-methylethanamine] | 285 |
| CC(C)(C)Cc1c[nH]c(C(C)(O)Cc2ccc(-c3ccc(F)cn3)cc2)n1 (stereo not drawn) [Example 15, 2-[4-(2,2-dimethylpropyl)-1H-imidazol-2-yl]-1-[4-(5-fluoropyridin-2-yl)phenyl]propan-2-ol] | 190 |
| CC(=O)NC(Cc1ccc(-c2ccc(F)cn2)cc1)c1nc(CC(C)(C)C)c[nH]1 (stereo not drawn) [Example 9, N-{1-[4-(2,2-dimethylpropyl)-1H-imidazol-2-yl]-2-[4-(5-fluoropyridin-2-yl)phenyl]ethyl}acetamide] | 220 |
| CC(C)(C)Cc1c[nH]c(C(C)(O)Cc2ccc(-n3cccn3)cc2)n1 (stereo not drawn) [Example 33, 2-[4-(2,2-dimethylpropyl)-1H-imidazol-2-yl]-1-[4-(1H-pyrazol-1-yl)phenyl]propan-2-ol] | 195 |
| CCNC(Cc1ccc(-c2ccccn2)cc1)c1nc(CC(C)(C)C)c[nH]1 (stereo not drawn) [Example 3, 1-[4-(2,2-dimethylpropyl)-1H-imidazol-2-yl]-N-ethyl-2-(4-pyridin-2-ylphenyl)ethanamine] | 245 |
| CC(C)(C)Cc1c[nH]c(C(O)Cc2ccc(-c3ccccn3)cc2)n1 (stereo not drawn) [Example 1, 1-[4-(2,2-dimethylpropyl)-1H-imidazol-2-yl]-2-(4-pyridin-2-ylphenyl)ethanol] | 120 |

Stronger by IC50, values ahead:

| IC50 [nM] | Structure (SMILES) |
| --- | --- |
| 58 | CCC(C)(C)Cc1c[nH]c(C(C)(O)Cc2ccc(-c3ccc(F)cn3)cc2)n1 (stereo not drawn) [Example 29, 2-[4-(2,2-dimethylbutyl)-1H-imidazol-2-yl]-1-[4-(5-fluoropyridin-2-yl)phenyl]propan-2-ol] |
| 5.1 | CCC(C)(C)Cc1c[nH]c(C2(Cc3ccc(-c4ccc(F)cn4)cc3)CCCN2)n1 (stereo not drawn) [Example 55, 2-[4-({2-[4-(2,2-dimethylbutyl)-1H-imidazol-2-yl]pyrrolidin-2-yl}methyl)phenyl]-5-fluoropyridine] |
| 110 | CC(C)(C)Cc1c[nH]c(C(O)Cc2ccc(-c3ccc(F)cn3)cc2)n1 (stereo not drawn) [Example 18, 1-[4-(2,2-dimethylpropyl)-1H-imidazol-2-yl]-2-[4-(5-fluoropyridin-2-yl)phenyl]ethanol] |
